Measured values from US7052676B2, “Methods for inhibition of HIV replication using a small molecule inhibitor” (priority 2000, dated 2006).
Entries after “also recorded” stand apart in the source; their conditions may differ. Where two headings read alike, the source gives them in different places.

Experiments:
[1] = system: HIV-1BRU; experiment: HIV-1BRU replication in PHA-activated PBL / T lymphocytes, RT activity in supernatants; assay type: cell-based; conditions: for increase of HIV-1BRU replication in PBL by exogenous chemokine, mean over donors: IL-8: 5 donors, CD8-depleted PBL, GRO-α: n=7, p=0.027
Method: (§1) HIV-1 Infection of MDM and PBL: For each experiment, multiple wells of MDM or PBL were infected with equal RT counts of HIV-1 (30–300×10^6 CPM of RT used per 10^5 cells). This amount of CPM of RT activity per cell corresponds to a multiplicity of infection (MOI) of between 0.01 and 0.1 as determined by titration on HOS-CD4-CCR5 and CEM-SS cell lines and quantitation of proviral DNA in PBMC 24 h after infection. MDM were cultured for 3 d prior to infection, washed after an overnight incubation with the virus, and cultured in DME+10% FBS. PHA-activated PBL were washed and incubated in RPMI+10% FBS+IL-2 (40 U/ml) overnight. CD8+cells were depleted with magnetic Dynabeads® M-450 CD8 according to the manufacturer's instructions (Dynal, Lake Success, N.Y.). CD8-depleted PBL were then incubated with HIV-1 for 4 h, washed and incubated in media +IL-2. A portion of the media (25%) was removed from the MDM and PBL supernatants and replaced twice weekly.

[2] = system: MDM; experiment: MTT assay of cellular viability, proliferation and activation in infected MDM; assay type: cell-based, human
Method: FIG. 3. […] MDM were treated as in FIGS. 1 and 2, and RT activity was measured every three to four days. MDM were also analyzed on day 13 by MTT assay (a measure of cellular viability, proliferation, and activation). Viability and activation was changed by less than 20% at all of the doses evaluated. For each treatment, viral replication was normalized against viability (RT activity/MTT assay) and then expressed relative to the control (no treatment). Data shown are the mean of three experiments;
In a preferred embodiment, the inhibitor is SB225002, a small molecular weight inhibitor that is an antagonist of IL-8 binding to CXCR2. In an alternate preferred embodiment, the inhibitor is antileukinate, a synthetic peptide inhibitor that interferes with both IL-8 and GRO-α binding to receptors. […] Infection of PBL with HIV-1BRU was inhibited by both the small molecule inhibitor, SB225002 (FIG. 29A), and the peptide, antileukinate (FIG. 29B). […] Cellular viability, proliferation, and activation were also analyzed in the infected cells by performing an MTT assay. […] Similarly, doses of antileukinate up to 10^−4 M in PBL and 10^−6 M in MDM reduced cellular viability by not more than 20%, and doses as low as 10^−8 M were effective at inhibiting HIV-1 replication. […]

[3] = system: PBL; assay type: cell-based, human
Excerpt: In a preferred embodiment, the inhibitor is SB225002, a small molecular weight inhibitor that is an antagonist of IL-8 binding to CXCR2. In an alternate preferred embodiment, the inhibitor is antileukinate, a synthetic peptide inhibitor that interferes with both IL-8 and GRO-α binding to receptors. […] Infection of PBL with HIV-1BRU was inhibited by both the small molecule inhibitor, SB225002 (FIG. 29A), and the peptide, antileukinate (FIG. 29B). […] Cellular viability, proliferation, and activation were also analyzed in the infected cells by performing an MTT assay. […] Similarly, doses of antileukinate up to 10^−4 M in PBL and 10^−6 M in MDM reduced cellular viability by not more than 20%, and doses as low as 10^−8 M were effective at inhibiting HIV-1 replication. […] The mean decreases in HIV-1BaL replication in MDM were 4.0±1.3 for 1000 nM SB225002 (p=0.019) and 2.6±0.6 for 10^−6 M antileukinate (p=0.002) relative to controls.

[4] = system: HIV-1BaL; experiment: HIV-1BaL replication in monocyte-derived macrophages (MDM), RT activity in supernatants; assay type: cell-based; conditions: for increase of HIV-1BaL replication in MDM by exogenous chemokine, mean over donors: IL-8: 17 donors, GRO-α: 5 donors
Method: as §1

[5] = system: GRO-α production by MDM; assay type: cell-based, human
[6] = system: HIV-1BaL; experiment: HIV-1BaL replication in activated (CD8-depleted) PBL, RT activity; assay type: cell-based; conditions: IL-8: 11 donors; GRO-α: n=6
Method: as §1

[7] = system: HIV-1; conditions: R5 and X4 isolates of HIV-1 and HIV-2
Method: Reverse Transcriptase (RT) Assay: HIV replication was determined by quantification of the RT activity present in the supernatants using a poly(A)-oligo(dT) template primer as previously described. […] RT activity was assayed using ^32P-labeled deoxythymidine triphosphate incorporated in DNA bound to DE81 paper (Whatman) and quantified using either the Series 400 PhosphorImager and ImageQuant® software (Molecular Dynamics, Sunnyvale, Calif.) or a Betascope radioisotope imaging system. RT activity is reported as phosphoimager counts except when labeled “counts” to signify beta counts.

[8] = system: HIV-1BRU; experiment: HIV-1BRU (X4) infection of MDM, RT activity; assay type: cell-based; conditions: MDM from multiple donors
Method: as §1

[9] = system: monocytes; experiment: Intracellular GRO staining of PBMC (flow cytometry); assay type: cell-based, human; conditions: staining after 6 hours
Method: Intracellular cytokine staining: PBMC were collected as described above and cultured in RPMI+10% FBS. The next day, PBMC were treated for 6 h with monensin (GolgiStop™, PharMingen) and incubated with virus, viral proteins, or TNF-α as indicated in the figure legend. PBMC were then collected and stained for the presence of intracellular GRO according to the manufacturer's instructions (PharMingen). Adherent cells were collected by incubation in PBS+10 mM EDTA for 30 min at 4° C. PBMC (both adherent and non-adherent cells) were then incubated in staining buffer (DPBS+1% FBS+0.09% sodium azide) with mouse IgG for 20 min at 4° C. to block non-specific binding of IgG to target cells. After two washes with staining buffer, PBMC were fixed and permeabilized with Cytofix/Cytoperm (PharMingen). PBMC were washed twice in Perm/Wash solution and then stained with either R-phycoerythrin (PE)-conjugated mouse anti-human GRO monoclonal antibody (GRO-PE) or PE-mouse IgG1, κ isotype control immunoglobulin (PharMingen). Analysis of cell staining was performed using an EPICS Elite cell sorter (Beckman-Coulter, Fullerton, Calif.). The monocyte and lymphocyte subpopulations were gated according to the pattern of forward scatter and side scatter.

[10] = system: CD14+ monocytes; experiment: Intracellular IL-8 staining of PBMC (flow cytometry); assay type: cell-based, human; conditions: staining after 6 hours; control monocytes 10%
Method: Intracellular Cytokine Staining: PBMC were collected as described above and cultured in RPMI+10% FBS. The next day, PBMC were treated for 6 h with monensin (GolgiStop™, PharMingen) and incubated with virus or TNF-α. PBMC were then collected and stained for the presence of intracellular IL-8 and various cell surface markers according to the manufacturer's instructions (PharMingen). Adherent cells were collected by incubation in PBS+10 mM EDTA for 30 min at 4° C. PBMC (both adherent and non-adherent cells) were incubated in staining buffer (DPBS+1% FBS+0.09% sodium azide) with mouse IgG for 20 min at 4° C. to block non-specific binding of IgG to target cells. PBMC were then washed with staining buffer and stained for cell surface antigens for 30 min at 4° C. using R-phycoerythrin (PE)-conjugated mouse anti-human CD4 (PE-CD4) or CD14 (PE-CD14) monoclonal antibodies or PE-mouse IgG1, κ isotype control immunoglobulin (PharMingen). After two washes with staining buffer, PBMC were fixed and permeabilized with Cytofix/Cytoperm (PharMingen). PBMC were washed twice in Perm/Wash solution and then stained with either fluorescein isothiocyanate (FITC)-conjugated mouse anti-human IL-8 monoclonal antibody or FITC-mouse IgG2a, κ immunoglobulin isotype standard (PharMingen). Analysis of cell staining was performed using an EPICS Elite cell sorter (Beckman-Coulter, Fullerton, Calif.). […]

[11] = system: IL-8 promoter; experiment: IL-8 promoter CAT reporter in transfected U937 cells; assay type: cell-based, human; conditions: Tat co-transfection alone, or TNF-α 1 ng/ml alone
Method: Transfection of the U937 Promonocyte Cell Line: U937 cells were transfected by the DEAE-dextran method with 1 μg of HIV-1 Tat (pCG-Tat1) or control vector (pCG) and 10 μg of a plasmid containing the chloramphenicol acetyl transferase (CAT) reporter gene downstream of either sequence which lacks eukaryotic promoter and enhancer sequences (pCAT-Basic, Promega, Madison, Wis.), nucleotides −254 to +19 of the IL-8 promoter (pCAT-IL-8), or the HIV-1-LTR. The cells were either left untreated or treated with TNF-α (1 ng/ml) at 24 hours after transfection and harvested 48 hours after transfection. CAT activity was quantified and normalized for the amount of protein. Values near 6000 represent complete acetylation of chloramphenicol (100%).

[12] = system: IL-8 production by MDM; experiment: IL-8 production by MDM (ELISA of supernatants); conditions: added prior to exposure to HIV-1

O=C(Nc1ccc([N+](=O)[O-])cc1O)Nc1ccccc1Br [SB225002, N-(2-hydroxy-4-nitrophenyl)-N′-(2-bromophenyl)urea, reference compound]
HIV-1BRU infection/replication in PBL, effect of inhibitor ([1]; treated every three days from one day before infection, RT activity days 3, 6, 9): decreases HIV-1 replication; also recorded: inhibited | cellular viability (MTT), effect of the doses used [2]: did not negatively affect cellular viability | cellular viability (MTT), effect of the doses used [3]: did not negatively affect cellular viability | mean decrease in HIV-1BaL replication in MDM relative to controls ([4]; 1000 nM, p=0.019): 4.0±1.3 | HIV replication in MDM, effect of inhibitor ([4]; RT activity normalized against MTT, relative to no treatment, mean of three experiments): significantly decrease HIV replication

O=c1c(-c2ccc(O)cc2)coc2cc(O)cc(O)c12 [genistein]
HIV-1BRU-induced GRO-α production by MDM, sensitivity to inhibitor [5]: sensitive

CO[C@H]1[C@@H](OC)C[C@H](C)[C@@H](OC)C2=CC(=O)C=C(NC(=O)/C(C)=C/C=C\[C@H](OC)[C@@H](OC(N)=O)/C(C)=C/[C@@H]1C)C2=O [herbimycin A]
HIV-1BRU-induced GRO-α production by MDM, sensitivity to inhibitor [5]: sensitive

GRO-α: recombinant C-X-C chemokine growth-regulated oncogene-alpha, ligand of CXCR2
increase of HIV-1BaL replication in PBL by exogenous chemokine, mean over donors [6]: 5 fold | increase of HIV-1BRU replication in PBL by exogenous chemokine, mean over donors [1]: 2.4 fold | replication of other isolates tested, effect of exogenous chemokine [7]: stimulated the replication of all isolates tested | susceptibility of MDM to productive infection with X4 HIV (HIV-1BRU) with exogenous chemokine [8]: does not confer susceptibility to productive infection with X4 HIV on MDM | HIV-1BaL replication in MDM, effect of exogenous chemokine [4]: augmented | increase of HIV-1BaL replication in MDM by exogenous chemokine, mean over donors [4]: 14 fold

IL-8: recombinant human IL-8, C-X-C chemokine
increase of HIV-1BaL replication in PBL by exogenous chemokine, mean over donors [6]: 4.8 fold | increase of HIV-1BRU replication in PBL by exogenous chemokine, mean over donors [1]: 1.7 fold | doses that stimulated viral replication ([1]; PHA-activated, CD8-depleted PBL (FIG. 8C)): exceeding 5 ng/ml | replication of other isolates tested, effect of exogenous chemokine [7]: stimulated the replication of all other isolates tested | susceptibility of MDM to productive infection with X4 HIV (HIV-1BRU) with exogenous chemokine [8]: does not confer susceptibility to productive infection with X4 HIV on MDM | HIV-1BaL replication in MDM, effect of exogenous chemokine [4]: augmented | increase of HIV-1BaL replication in MDM by exogenous chemokine, mean over donors [4]: 6.2 fold

IP-10: CXCR3 ligand, C-X-C chemokine
HIV-1BRU replication in peripheral blood lymphocytes, effect of exogenous chemokine [1]: stimulation | HIV-1BaL replication in MDM, effect of exogenous chemokine [4]: stimulation

SDF-1α
GRO-α production by MDM, effect of treatment with the agent alone [5]: not produced

TNF-α
monocytes in which GRO was present [9]: large percentage of monocytes | CD14+ monocytes in which IL-8 was present [10]: > 90% | IL-8 promoter activity, effect of single stimulus [11]: activated

polymixin B
HIV-1BRU-induced GRO-α production by MDM, sensitivity to inhibitor ([5]; supernatants 20 hours after exposure to virus): did not prevent the HIV-1BRU-induced increases in GRO-α | HIV-induced IL-8 production by MDM, effect of antibody or agent [12]: did not prevent the HIV-induced increase in IL-8 production

B1: RANTES: C-C chemokine which binds to CCR5 and CCR1 (protein, UniProt P13501 24-91, looked up)
C-C motif chemokine 5: SPYSSDTTPCCFAYIARPLPRAHIKEYFYTSGKCSNPAVVFVTRKNRQVCANPEKKWVREYINSLEMS
GRO-α production by MDM, effect of treatment with the agent alone [5]: nor RANTES, which binds to CCR5 and CCR1, was able to stimulate GRO-α production

B2: MIG: CXCR3 ligand, C-X-C chemokine (protein, UniProt Q07325 23-125, looked up)
C-X-C motif chemokine 9: TPVVRKGRCSCISTNQGTIHLQSLKDLKQFAPSPSCEKIEIIATLKNGVQTCLNPDSADVKELIKKWEKQVSQKKKQKNGKKHQKKKVLKVRKSQRSRQKKTT
HIV-1BRU replication in peripheral blood lymphocytes, effect of exogenous chemokine [1]: stimulation

B3: I-TAC: CXCR3 ligand, C-X-C chemokine (protein, UniProt O14625 22-94, looked up)
C-X-C motif chemokine 11: FPMFKRGRCLCIGPGVKAVKVADIEKASIMYPSNNCDKIEVIITLKENKGQRCLNPKSKQARLIIKKVERKNF
HIV-1BRU replication in peripheral blood lymphocytes, effect of exogenous chemokine [1]: stimulation
